Measurements taken from patent EP1582590A1, “Sequential intracellular screening method” (Aptanomics, priority 2004, dated 2005).
Where two headings read alike, the source gives them in different places.

Legend:
Format in all cases: cell-based
[1] = molecular target: T1, interaction between Trα and NCoR (Homo sapiens, UniProt P10827); assay: dual (duplex) two-hybrid assay, two yeast populations mixed in one well, ruc signal
T1 construct: expressed in transfected cells; host or cells: Saccharomyces cerevisiae TB50 (WT and ERG6-deleted)
T1 sequence (P10827 1-410 isoform P10827-2): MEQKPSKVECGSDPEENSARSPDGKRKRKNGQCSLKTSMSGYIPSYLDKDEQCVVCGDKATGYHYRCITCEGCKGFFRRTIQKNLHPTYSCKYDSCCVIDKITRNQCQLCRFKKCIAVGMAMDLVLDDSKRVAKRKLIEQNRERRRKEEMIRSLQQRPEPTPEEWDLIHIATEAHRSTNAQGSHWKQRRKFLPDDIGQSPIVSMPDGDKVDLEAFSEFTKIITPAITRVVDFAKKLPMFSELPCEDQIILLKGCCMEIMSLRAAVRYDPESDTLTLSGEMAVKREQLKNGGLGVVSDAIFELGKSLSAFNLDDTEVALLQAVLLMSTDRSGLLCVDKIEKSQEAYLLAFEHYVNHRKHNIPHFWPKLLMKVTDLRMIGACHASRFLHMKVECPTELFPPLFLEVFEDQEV
Method: (§1) Yeast strains TB50 WT and TB50 ERG6 were transformed as described in Figure 1. They were grown from frozen transformants. For each strain, the two yeast cultures containing the two protein interactions were mixed together and delivered into a microwell plate. […] Experiments were performed in duplicates. The values are normalized with the signals obtained in presence of DMSO.
(§2) 20µl of yeast cultures were delivered into 96 well half area white plates (Coming-Costar, ref. 3693). When applicable, 2µl of either DMSO 10% or 10µM of small molecules were added. 2µl of Galactose 20% were added to the wells to induce the expression of the preys. When two different yeast cultures were mixed in a single well, 10µl of each culture were used, to reach a total of 20µl. Plates were incubated at room temperature and left non-agitated for various times. […] Briefly, to lyse the yeast and reveal the activity of firefly luciferase, 25µl of reagent was added and the plates were incubated for another 40 to 60min at room temperature, without agitation, before being read in a luminometer. To reveal the activity of Renilla luciferase, 25µl of "stop&glo reagent" were added to the wells and the plates were incubated for another 60min at room temperature, without agitation, before a second reading. Luminescence was measured by a Trilux (Perkin Elmer) setting the integration at 1sec/well. […]

TGF-β-R/FKBP12 = TGF-β-R/FKBP12 (Rattus norvegicus, UniProt Q62658); assay: luminescent yeast two-hybrid assay, inhibition of protein interaction by small molecules (luc reporter)
Method: They were grown from frozen transformants.
20µl of yeast cultures were delivered into 96 well half area white plates (Coming-Costar, ref. 3693). When applicable, 2µl of either DMSO 10% or 10µM of small molecules were added. 2µl of Galactose 20% were added to the wells to induce the expression of the preys. When two different yeast cultures were mixed in a single well, 10µl of each culture were used, to reach a total of 20µl. Plates were incubated at room temperature and left non-agitated for various times. To reveal the activity of both luciferases, a Dual-Glo™ luciferase assay system was used (Promega, ref. E2920) according to the instructions of the manufacturer. Briefly, to lyse the yeast and reveal the activity of firefly luciferase, 25µl of reagent was added and the plates were incubated for another 40 to 60min at room temperature, without agitation, before being read in a luminometer. To reveal the activity of Renilla luciferase, 25µl of "stop&glo reagent" were added to the wells and the plates were incubated for another 60min at room temperature, without agitation, before a second reading. Luminescence was measured by a Trilux (Perkin Elmer) setting the integration at 1sec/well. Values are given in LCPS (1LCPS = 100 counts per sec).

[2] = tested on: lexA-TGFβ-R and B42-FKBP12; assay: dual (duplex) two-hybrid assay, two yeast populations mixed in one well, luc signal
Method: as §1, §2

TGF-β-R/FKBP12, sequence (Q62658 whole entry): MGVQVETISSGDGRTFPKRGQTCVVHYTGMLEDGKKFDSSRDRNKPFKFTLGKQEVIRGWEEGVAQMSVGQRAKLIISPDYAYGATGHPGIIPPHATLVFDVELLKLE
TGF-β-R/FKBP12, sequence (P80204 146-501 partner): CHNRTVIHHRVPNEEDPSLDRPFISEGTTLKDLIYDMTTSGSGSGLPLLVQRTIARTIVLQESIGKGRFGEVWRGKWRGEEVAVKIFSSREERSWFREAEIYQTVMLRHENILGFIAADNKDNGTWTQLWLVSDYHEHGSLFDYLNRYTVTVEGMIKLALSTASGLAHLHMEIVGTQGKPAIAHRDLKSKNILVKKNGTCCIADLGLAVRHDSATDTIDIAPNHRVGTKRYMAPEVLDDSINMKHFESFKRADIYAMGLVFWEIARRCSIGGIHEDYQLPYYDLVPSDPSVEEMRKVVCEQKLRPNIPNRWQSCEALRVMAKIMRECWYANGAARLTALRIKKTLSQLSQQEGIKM

Compound	inhibition of the ruc two-hybrid signal ([1]; ERG6 deleted strain, high concentration of FK506, non-cognate interaction, duplex, induction time 5h) [%]	inhibition at 10 µM (TGF-β-R/FKBP12; read-out: % Inhibition 10µM, Addition of compound C 23h after induction of prey (partner B), plates read 5h later, TB50 WT) [%]	inhibition at 10 µM (TGF-β-R/FKBP12; read-out: % Inhibition 10µM, Addition of compound C before induction of prey (partner B), 5h induction time, TB50 WT) [%]	inhibition at 10 µM (TGF-β-R/FKBP12; read-out: inhibition of two-hybrid signals, 10µM FK506, maximum inhibition after 4h of induction time) [%]	effect on ruc two-hybrid signal [1]	effect on luc two-hybrid signal [2]
C=CC[C@@H]1/C=C(\C)C[C@H](C)C[C@H](OC)[C@H]2O[C@@](O)(C(=O)C(=O)N3CCCC[C@H]3C(=O)O[C@H](/C(C)=C/[C@@H]3CC[C@@H](O)[C@H](OC)C3)[C@H](C)[C@@H](O)CC1=O)[C@H](C)C[C@@H]2OC [FK506]	40	46	80	> 90		
C[C@@H]1C[C@@H]([C@H](O)CC2CC(=O)NC(=O)C2)C(=O)[C@@H](C)C1 [cycloheximide]					strongly inhibited both two-hybrid signals	strongly inhibited both two-hybrid signals
